Measured values published in ChEMBL document CHEMBL5505970 (J Med Chem, 2024).
pIC50: −log10 of the molar value. Activity calls are given as the source filed them. The calls are words filed in the database; no cut-off is given here.

Columns and labels:
[1] = Clearance in human liver microsomes at 1 uM in presence of NADPH by ESI/LC-MS/MS analysis; format: ADME, Microsome; conditions: read-out: CLH
[2] = Clearance in rat liver microsomes at 1 uM in presence of NADPH by ESI/LC-MS/MS analysis; format: ADME, Microsome; conditions: read-out: CLH
[3] = Clearance in dog liver microsomes at 1 uM in presence of NADPH by ESI/LC-MS/MS analysis; format: ADME, Canis lupus familiaris, Microsome; conditions: read-out: CLH
[4] = Clearance in dog hepatocytes at 1 uM measured per million cells by ESI/LC-MS/MS analysis; format: ADME, cell-based, Canis lupus familiaris, Hepatocyte; conditions: read-out: CLH
[5] = molecular target: Serine/threonine-protein kinase mTOR (Homo sapiens, UniProt P42345); assay: Inhibition of mTOR in human Jurkat cell lysates at 0.03 to 0.3 uM in presence of biotinylated ADP by KiNativ profiling based mass spectrometry; format: subcellular; conditions: dose 0.03-0.3 µM
[6] = molecular target: Serine/threonine-protein kinase SMG1 (Homo sapiens) (UniProt Q96Q15); assay: Inhibition of SMG1 in human Jurkat cell lysates at 0.03 to 0.3 uM in presence of biotinylated ADP by KiNativ profiling based mass spectrometry; format: subcellular; conditions: dose 0.03-0.3 µM
[7] = molecular target: Phosphatidylinositol 4-phosphate 3-kinase C2 domain-containing subunit beta (Homo sapiens) (UniProt O00750); assay: Inhibition of PIK3C2B in human Jurkat cell lysates at 0.3 uM in presence of biotinylated ADP by KiNativ profiling based mass spectrometry; format: subcellular
Sequence of Phosphatidylinositol 4-phosphate 3-kinase C2 domain-containing subunit beta (Homo sapiens) (O00750 whole entry, the tested form may be a part): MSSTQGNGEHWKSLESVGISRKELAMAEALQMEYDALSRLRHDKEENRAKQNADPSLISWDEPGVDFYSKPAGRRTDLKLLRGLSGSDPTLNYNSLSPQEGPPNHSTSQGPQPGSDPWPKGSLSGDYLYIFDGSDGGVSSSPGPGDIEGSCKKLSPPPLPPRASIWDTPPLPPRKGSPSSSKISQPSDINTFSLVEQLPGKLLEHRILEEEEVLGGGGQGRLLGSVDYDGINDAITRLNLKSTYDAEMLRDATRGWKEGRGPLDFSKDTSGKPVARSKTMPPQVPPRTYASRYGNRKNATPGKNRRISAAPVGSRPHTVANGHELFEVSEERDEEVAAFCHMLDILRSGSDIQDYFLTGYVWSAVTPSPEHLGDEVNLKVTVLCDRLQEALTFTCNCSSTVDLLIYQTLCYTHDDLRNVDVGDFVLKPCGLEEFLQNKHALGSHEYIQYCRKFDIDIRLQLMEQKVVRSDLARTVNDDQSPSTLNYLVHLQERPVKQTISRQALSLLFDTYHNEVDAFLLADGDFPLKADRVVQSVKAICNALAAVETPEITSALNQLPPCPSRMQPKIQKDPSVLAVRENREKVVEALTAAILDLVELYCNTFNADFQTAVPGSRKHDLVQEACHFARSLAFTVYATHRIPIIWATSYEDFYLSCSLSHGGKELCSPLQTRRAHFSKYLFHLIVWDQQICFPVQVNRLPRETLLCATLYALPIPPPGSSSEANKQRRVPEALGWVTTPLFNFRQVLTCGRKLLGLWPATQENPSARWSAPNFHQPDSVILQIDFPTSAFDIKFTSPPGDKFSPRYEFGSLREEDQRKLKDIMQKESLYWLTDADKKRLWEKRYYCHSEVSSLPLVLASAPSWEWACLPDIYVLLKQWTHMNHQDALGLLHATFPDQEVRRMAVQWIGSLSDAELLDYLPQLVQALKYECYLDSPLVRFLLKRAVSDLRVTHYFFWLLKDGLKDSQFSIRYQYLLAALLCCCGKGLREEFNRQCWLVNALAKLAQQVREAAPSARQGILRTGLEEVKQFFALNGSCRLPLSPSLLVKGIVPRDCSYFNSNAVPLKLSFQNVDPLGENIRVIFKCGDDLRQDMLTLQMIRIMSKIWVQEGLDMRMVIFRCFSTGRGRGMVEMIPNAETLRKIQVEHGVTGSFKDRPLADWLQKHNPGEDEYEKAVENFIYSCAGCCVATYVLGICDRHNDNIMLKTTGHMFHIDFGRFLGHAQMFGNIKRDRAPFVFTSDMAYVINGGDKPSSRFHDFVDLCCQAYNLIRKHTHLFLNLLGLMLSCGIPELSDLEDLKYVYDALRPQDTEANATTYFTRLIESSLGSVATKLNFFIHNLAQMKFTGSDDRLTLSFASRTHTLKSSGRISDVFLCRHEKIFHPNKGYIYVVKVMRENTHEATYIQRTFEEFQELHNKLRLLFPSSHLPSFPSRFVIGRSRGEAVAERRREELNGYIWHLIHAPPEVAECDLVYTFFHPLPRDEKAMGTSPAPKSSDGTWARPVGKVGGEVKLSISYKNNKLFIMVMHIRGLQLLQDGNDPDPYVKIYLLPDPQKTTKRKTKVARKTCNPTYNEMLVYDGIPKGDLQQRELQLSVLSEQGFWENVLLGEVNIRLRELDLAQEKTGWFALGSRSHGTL

[8] = molecular target: Serine-protein kinase ATM (Homo sapiens, UniProt Q13315); assay: Inhibition of ATM in human Jurkat cell lysates at 0.3 uM in presence of biotinylated ADP by KiNativ profiling based mass spectrometry; format: subcellular
[9] = Oral bioavailability in Beagle dog at 5 mg/kg formulated as suspension in 0.5% methocel and 0.02% SLS in 50 mM citrate buffer measured for 24 hrs by reverse phase liquid chromatography coupled to mass spectrometry; format: ADME, organism-based, Canis lupus familiaris; conditions: in vivo
[10] = Oral bioavailability in cynomolgus monkey at 1 mg/kg formulated as suspension in 10% propylene glycol:18% PEG400 in water measured for 24 hrs by reverse phase liquid chromatography coupled to mass spectrometry; format: ADME, organism-based, Macaca fascicularis; conditions: in vivo
[11] = molecular target: Serine/threonine-protein kinase ATR (Homo sapiens, UniProt Q13535); assay: Inhibition of ATR in gemcitabine-stimulated human LoVo cells assessed as decrease in CHK1 phosphorylation at Ser345 residue; format: cell-based; conditions: lovo
Sequence of Serine/threonine-protein kinase ATR (Q13535 whole entry): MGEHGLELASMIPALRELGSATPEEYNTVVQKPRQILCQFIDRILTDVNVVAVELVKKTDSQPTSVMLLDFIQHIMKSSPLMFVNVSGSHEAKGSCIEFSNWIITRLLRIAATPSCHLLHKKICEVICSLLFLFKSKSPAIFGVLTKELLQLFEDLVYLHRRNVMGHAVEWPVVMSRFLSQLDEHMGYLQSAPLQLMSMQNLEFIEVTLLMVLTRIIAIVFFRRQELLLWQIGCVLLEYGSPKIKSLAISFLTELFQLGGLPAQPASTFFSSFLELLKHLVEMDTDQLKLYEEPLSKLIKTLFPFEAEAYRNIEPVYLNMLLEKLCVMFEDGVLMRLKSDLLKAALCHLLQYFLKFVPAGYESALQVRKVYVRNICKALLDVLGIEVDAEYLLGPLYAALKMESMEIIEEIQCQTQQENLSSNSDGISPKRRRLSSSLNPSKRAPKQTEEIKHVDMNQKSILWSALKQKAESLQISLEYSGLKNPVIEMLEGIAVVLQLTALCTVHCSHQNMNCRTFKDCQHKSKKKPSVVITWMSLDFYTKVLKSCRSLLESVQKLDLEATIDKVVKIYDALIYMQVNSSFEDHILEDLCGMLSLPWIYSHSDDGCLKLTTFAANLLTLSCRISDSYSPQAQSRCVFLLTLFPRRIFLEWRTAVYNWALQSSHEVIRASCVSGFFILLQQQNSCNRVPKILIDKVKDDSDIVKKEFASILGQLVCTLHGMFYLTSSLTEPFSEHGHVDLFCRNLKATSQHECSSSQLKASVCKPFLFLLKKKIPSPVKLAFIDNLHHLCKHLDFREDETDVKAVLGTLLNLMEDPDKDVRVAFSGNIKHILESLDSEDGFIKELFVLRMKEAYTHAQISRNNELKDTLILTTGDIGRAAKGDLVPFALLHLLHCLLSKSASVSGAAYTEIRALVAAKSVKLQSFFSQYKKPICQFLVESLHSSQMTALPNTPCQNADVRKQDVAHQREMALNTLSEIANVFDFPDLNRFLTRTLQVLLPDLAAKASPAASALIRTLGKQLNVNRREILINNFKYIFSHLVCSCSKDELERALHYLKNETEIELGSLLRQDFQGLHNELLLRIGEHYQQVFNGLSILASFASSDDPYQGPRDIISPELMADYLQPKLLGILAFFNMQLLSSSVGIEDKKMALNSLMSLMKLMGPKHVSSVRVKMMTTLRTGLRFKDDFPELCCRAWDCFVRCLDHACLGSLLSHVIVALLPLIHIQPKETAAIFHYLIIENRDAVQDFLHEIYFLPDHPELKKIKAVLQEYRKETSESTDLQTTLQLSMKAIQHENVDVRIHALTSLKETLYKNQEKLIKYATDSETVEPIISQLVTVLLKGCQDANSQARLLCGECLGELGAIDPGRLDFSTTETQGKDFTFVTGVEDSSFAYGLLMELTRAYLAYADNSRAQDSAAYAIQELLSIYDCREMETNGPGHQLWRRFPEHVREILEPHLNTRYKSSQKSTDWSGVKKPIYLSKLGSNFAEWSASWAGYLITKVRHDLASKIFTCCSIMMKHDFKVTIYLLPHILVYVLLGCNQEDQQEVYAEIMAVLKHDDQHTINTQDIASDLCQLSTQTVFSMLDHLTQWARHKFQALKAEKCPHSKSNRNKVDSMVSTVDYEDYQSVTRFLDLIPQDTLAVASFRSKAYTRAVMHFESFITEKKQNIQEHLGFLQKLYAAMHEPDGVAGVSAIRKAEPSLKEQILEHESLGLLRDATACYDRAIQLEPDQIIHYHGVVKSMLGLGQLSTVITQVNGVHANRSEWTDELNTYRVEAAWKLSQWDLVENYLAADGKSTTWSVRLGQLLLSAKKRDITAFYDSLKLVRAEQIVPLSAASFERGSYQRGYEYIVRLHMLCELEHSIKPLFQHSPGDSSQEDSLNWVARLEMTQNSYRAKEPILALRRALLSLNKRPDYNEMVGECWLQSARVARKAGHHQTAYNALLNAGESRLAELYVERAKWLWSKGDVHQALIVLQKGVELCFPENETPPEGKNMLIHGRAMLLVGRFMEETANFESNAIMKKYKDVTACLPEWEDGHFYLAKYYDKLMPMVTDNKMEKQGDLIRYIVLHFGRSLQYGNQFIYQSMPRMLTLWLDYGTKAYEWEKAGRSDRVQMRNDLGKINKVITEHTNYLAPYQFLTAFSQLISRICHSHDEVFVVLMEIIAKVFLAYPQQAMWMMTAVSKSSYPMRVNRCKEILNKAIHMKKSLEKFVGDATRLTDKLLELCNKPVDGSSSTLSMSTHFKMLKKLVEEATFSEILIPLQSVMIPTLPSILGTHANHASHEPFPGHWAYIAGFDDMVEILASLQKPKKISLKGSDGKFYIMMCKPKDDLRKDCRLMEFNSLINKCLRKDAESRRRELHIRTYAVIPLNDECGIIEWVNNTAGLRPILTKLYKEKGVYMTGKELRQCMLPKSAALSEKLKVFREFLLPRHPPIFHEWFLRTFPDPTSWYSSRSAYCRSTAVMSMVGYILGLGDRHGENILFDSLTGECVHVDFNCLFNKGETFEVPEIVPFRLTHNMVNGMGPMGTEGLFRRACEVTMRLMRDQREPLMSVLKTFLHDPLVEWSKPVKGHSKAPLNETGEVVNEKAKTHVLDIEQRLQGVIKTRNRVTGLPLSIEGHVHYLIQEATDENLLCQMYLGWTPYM

LoVo = assay: Cytotoxicity against human LoVo cells assessed as reduction in cell viability incubated for 5 days by CellTiter-Glo assay; format: functional, cell-based; conditions: 120 h
[12] = Toxicity in BALB/c mouse assessed as reduction in bone marrow cell viability at 10 mg/kg, po qd for 3 days by trypan blue exclusion assay; format: organism-based; conditions: in vivo, 72 h, time 3 day
[13] = Toxicity in BALB/c mouse assessed as reduction in total viable cell counts in femur at 10 mg/kg, po qd for 3 days; format: organism-based; conditions: in vivo, 72 h, time 3 day
[14] = Toxicity in BALB/c mouse assessed as megakaryocytes in bone marrow at 10 mg/kg, po qd for 3 days; format: organism-based; conditions: in vivo, 72 h, time 3 day
[15] = Toxicity in BALB/c mouse assessed as late stage erythroblasts in bone marrow at 10 mg/kg, po qd for 3 days and measured at 4 days after treatment discontinuation by flow cytometry; format: organism-based; conditions: in vivo, 72 h, time 3 day
[16] = Toxicity in BALB/c mouse assessed as increase in proportion of red blood cells in bone marrow at 10 mg/kg, po qd for 3 days; format: organism-based; conditions: in vivo, 72 h, time 3 day
[17] = Toxicity in BALB/c mouse assessed as red blood cells in bone marrow at 10 mg/kg, po qd for 3 days and measured at 4 days after treatment discontinuation; format: organism-based; conditions: in vivo, 72 h, time 3 day
[18] = Toxicity in NOD-SCID mouse xenografted with human Granta-519 cells assessed as changes in body weight at 30 mg/kg, po qd for 3 days and measured at 4 days after drug treatment cessation; format: organism-based; conditions: in vivo, 72 h, time 3 day
[19] = Toxicity in NOD-SCID mouse xenografted with human Granta-519 cells assessed as changes in body weight at 25 mg/kg, po qd for 5 days and measured at 2 days after drug treatment cessation; format: organism-based; conditions: in vivo, 120 h, time 5 day
Granta-519 [20] = assay: Antitumor activity against human Granta-519 cells xenografted in NOD-SCID mouse assessed as decrease in tumor volume at 30 mg/kg, po qd for 3 days and measured at 4 days after drug treatment cessation; format: functional, organism-based; conditions: time 3.0 day
Granta-519 [21] = assay: Antitumor activity against human Granta-519 cells xenografted in NOD-SCID mouse assessed as decrease in tumor volume at 25 mg/kg, po qd for 5 days and measured at 2 days after drug treatment cessation; format: functional, organism-based; conditions: time 5.0 day
[22] = Toxicity in NOD-SCID mouse xenografted with human Granta-519 cells assessed as circulating reticulocytes at 30 mg/kg, po qd for 3 days and 4 days off treatment and measured on day 14; format: organism-based; conditions: in vivo, 72 h, time 3 day
[23] = Toxicity in NOD-SCID mouse xenografted with human Granta-519 cells assessed as early stage erythroblasts at 30 mg/kg, po qd for 3 days and measured at 2 days after treatment discontinuation by flow cytometry; format: organism-based; conditions: in vivo, 72 h, time 3 day
[24] = Clearance in CD-1 mouse at 1 mg/kg, iv formulated as a solution in 10% PG:18% PEG400 in water or 5% NMP:95% (10% VitE TPGS in water) measured for 24 hrs by reverse phase liquid chromatography coupled to mass spectrometry; format: ADME, organism-based; conditions: in vivo
[25] = Clearance in Beagle dog at 0.5 mg/kg, iv formulated as a solution in 10% PG:18% PEG400 in water or 5% NMP:95% (10% VitE TPGS in water) measured for 24 hrs by reverse phase liquid chromatography coupled to mass spectrometry; format: ADME, organism-based, Canis lupus familiaris; conditions: in vivo
[26] = Clearance in cynomolgus monkey at 0.5 mg/kg, iv formulated as a solution in 10% PG:18% PEG400 in water or 5% NMP:95% (10% VitE TPGS in water) measured for 24 hrs by reverse phase liquid chromatography coupled to mass spectrometry; format: ADME, organism-based, Macaca fascicularis; conditions: in vivo
[27] = Toxicity in NOD-SCID mouse xenografted with human Granta-519 cells assessed as reduction in late stage erythroblasts at 10 mg/kg, po qd for 1 day by flow cytometry; format: organism-based; conditions: in vivo, 24 h
[28] = Toxicity in NOD-SCID mouse xenografted with human Granta-519 cells assessed as early stage erythroblasts in bone marrow at 10 mg/kg, po qd for 3 days co-administered with PARP inhibitor, niraparib and measured at 2 days after treatment cessation by flow cytometry; format: organism-based; conditions: in vivo, 72 h, time 3 day
[29] = Toxicity in NOD-SCID mouse xenografted with human Granta-519 cells assessed as late stage erythroblasts in bone marrow at 10 mg/kg, po qd for 3 days co-administered with PARP inhibitor, niraparib and measured at 2 days after treatment cessation by flow cytometry; format: organism-based; conditions: in vivo, 72 h, time 3 day
[30] = Toxicity in NOD-SCID mouse xenografted with human Granta-519 cells assessed as late stage erythroblasts in bone marrow at 10 mg/kg, po qd for 3 days and measured at 4 days after treatment cessation by flow cytometry; format: organism-based; conditions: in vivo, 72 h, time 3 day
[31] = Toxicity in NOD-SCID mouse xenografted with human Granta-519 cells assessed as red blood cells count at 5 mg/kg, po qd for 3 days and 4 days off intermittent dosing for 3 cycles co-administered with PARP inhibitor, niraparib from day 3 to day 6 in each cycle and measured on day 21; format: organism-based; conditions: in vivo, 504 h, time 21 day

With `C[C@@H]1COCCN1c1cc([C@]2(O)C[C@H]3CC[C@@H](C2)O3)c2cnn(-c3cc[nH]n3)c2n1` [CAMONSERTIB] the microsomal CLint at 1 µM [1] was under 11.6 µL/min/mg, the microsomal CLint at 1 µM [2] was 97 µL/min/mg and the microsomal CLint at 1 µM [3] was under 11.6 µL/min/mg. The hepatocyte CLint at 1 µM [4] was under 1 µL/min/1e6 cells, the inhibition [5] was “Active” and the inhibition [6] was “Active”. For the same molecule, the inhibition [7] was “Active”, the inhibition [8] was “Active” and the bioavailability [9] was 113%. It also gave a bioavailability [10] of 56%, a pIC50 [11] of 9.48 and a pIC50 (LoVo) of 7.55. The Activity [12] was “Toxic”, the Activity [13] was “Toxic” and the Activity [14] was “Non-Toxic”. For the same molecule, the Activity [15] was “Non-Toxic”, the Activity [16] was “Toxic” and the Activity [17] was “Non-Toxic”. For the same molecule, the Activity [18] was “Non-Toxic”, the Activity [19] was “Non-Toxic” and the Activity (Granta-519 [20]) was “Active”. The Activity (Granta-519 [21]) was “Active”, the Activity [22] was “Non-Toxic” and the Activity [23] was “Non-Toxic”. It also gave a clearance [24] of 0.072 L/h/kg, a clearance [25] of 0.606 L/h/kg and a clearance [26] of 0.84 L/h/kg. For the same molecule, the Activity [27] was “Toxic”, the Activity [28] was “Non-Toxic” and the Activity [29] was “Non-Toxic”. The Activity [30] was “Non-Toxic” and the Activity [31] was “Non-Toxic”.
